Assay results from ChEMBL document CHEMBL3885881, “DrugMatrix”.

Species on record: Rattus norvegicus
Assay: DrugMatrix - Regimen: Daily Repeat
Type: toxicity, organism-based, Sprague-Dawley
Design: regimen Daily Repeat, gender Male, age 6-8 weeks
Conditions: in vivo, po, route oral GAVAGE, vehicle .5 % CMC; for ABSOLUTE BASOPHIL / ABSOLUTE EOSINOPHIL / ABSOLUTE LYMPHOCYTE / ABSOLUTE MONOCYTE / ABSOLUTE SEGMENTED NEUTROPHIL / BASOPHIL / EOSINOPHIL / ERYTHROCYTE COUNT / HEMATOCRIT / HEMOGLOBIN / LEUKOCYTE COUNT / LYMPHOCYTE / MEAN CORPUSCULAR HEMOGLOBIN / MEAN CORPUSCULAR HEMOGLOBIN CONCENTRATION / MEAN CORPUSCULAR VOLUME / MONOCYTE / NEUTROPHIL / NUCLEATED RED BLOOD CELLS / PLATELET COUNT: tissue Blood; for ALANINE AMINOTRANSFERASE / ALBUMIN / ALKALINE PHOSPHATASE / ASPARTATE AMINOTRANSFERASE / BLOOD UREA NITROGEN / CARBON DIOXIDE / CHLORIDE / CHOLESTEROL / CREATINE PHOSPHOKINASE / CREATININE / GLUCOSE / LACTATE DEHYDROGENASE / LIPASE / PHOSPHORUS / POTASSIUM / SODIUM / TOTAL BILIRUBIN / TOTAL PROTEIN / URIC ACID: tissue Plasma
[1] = 0 mg/kg, 72 h, dose level Control, time 3 day
[2] = 0 mg/kg, 120 h, dose level Control, time 5 day
[3] = 50 mg/kg, 72 h, dose level Low, time 3 day

CC1(C)[C@H]2CC[C@]1(C)C(=O)C2 [(-)-CAMPHOR]
ABSOLUTE BASOPHIL [1]: 0 CELLS/uL
ABSOLUTE EOSINOPHIL [1]: 222.83 CELLS/uL
ABSOLUTE LYMPHOCYTE [1]: 14453 CELLS/uL
ABSOLUTE MONOCYTE [1]: 0 CELLS/uL
ABSOLUTE SEGMENTED NEUTROPHIL [1]: 1490.83 CELLS/uL
BASOPHIL [1]: 0%
EOSINOPHIL [1]: 1.33%
ERYTHROCYTE COUNT [1]: 5.76 x10E6/uL
HEMATOCRIT [1]: 36.52%
HEMOGLOBIN [1]: 13.45 G/DL
LEUKOCYTE COUNT [1]: 16.17 x10E3/uL
LYMPHOCYTE [1]: 89.33%
MEAN CORPUSCULAR HEMOGLOBIN [1]: 23.37 pg
MEAN CORPUSCULAR HEMOGLOBIN CONCENTRATION [1]: 36.85 G/DL
MEAN CORPUSCULAR VOLUME [1]: 63.47 fL
MONOCYTE [1]: 0%
NEUTROPHIL [1]: 9.33%
NUCLEATED RED BLOOD CELLS [1]: 0 /100WBC
PLATELET COUNT [1]: 1239.5 x10E3/uL
ALANINE AMINOTRANSFERASE [1]: 43.83 u/L
ALBUMIN [1]: 4.27 G/DL
ALKALINE PHOSPHATASE [1]: 398.83 u/L
ASPARTATE AMINOTRANSFERASE [1]: 81.17 u/L
BLOOD UREA NITROGEN [1]: 17.67 mg/dL
CARBON DIOXIDE [1]: 27.5 mmol/L
CHLORIDE [1]: 99.17 MEQ/L
CHOLESTEROL [1]: 74 mg/dL
CREATINE PHOSPHOKINASE [1]: 331.5 u/L
CREATININE [1]: 0.2 mg/dL
GLUCOSE [1]: 171.33 mg/dL
LACTATE DEHYDROGENASE [1]: 241.67 u/L
LIPASE [1]: 9.5 u/L
PHOSPHORUS [1]: 12.25 mg/dL
POTASSIUM [1]: 6.33 MEQ/L
SODIUM [1]: 141.28 MEQ/L
TOTAL BILIRUBIN [1]: 0.15 mg/dL
TOTAL PROTEIN [1]: 5.98 G/DL
URIC ACID [1]: 1.63 mg/dL
ABSOLUTE BASOPHIL [2]: 0 CELLS/uL
ABSOLUTE EOSINOPHIL [2]: 148.67 CELLS/uL
ABSOLUTE LYMPHOCYTE [2]: 16020.5 CELLS/uL
ABSOLUTE MONOCYTE [2]: 29.17 CELLS/uL
ABSOLUTE SEGMENTED NEUTROPHIL [2]: 1468.33 CELLS/uL
BASOPHIL [2]: 0%
EOSINOPHIL [2]: 1%
ERYTHROCYTE COUNT [2]: 5.78 x10E6/uL
HEMATOCRIT [2]: 35.77%
HEMOGLOBIN [2]: 13.4 G/DL
LEUKOCYTE COUNT [2]: 17.67 x10E3/uL
LYMPHOCYTE [2]: 90.5%
MEAN CORPUSCULAR HEMOGLOBIN [2]: 23.22 pg
MEAN CORPUSCULAR HEMOGLOBIN CONCENTRATION [2]: 37.47 G/DL
MEAN CORPUSCULAR VOLUME [2]: 61.92 fL
MONOCYTE [2]: 0.17%
NEUTROPHIL [2]: 8.33%
NUCLEATED RED BLOOD CELLS [2]: 0.17 /100WBC
PLATELET COUNT [2]: 1255.5 x10E3/uL
ALANINE AMINOTRANSFERASE [2]: 46.5 u/L
ALBUMIN [2]: 4.38 G/DL
ALKALINE PHOSPHATASE [2]: 336 u/L
ASPARTATE AMINOTRANSFERASE [2]: 76.5 u/L
BLOOD UREA NITROGEN [2]: 20 mg/dL
CARBON DIOXIDE [2]: 27.5 mmol/L
CHLORIDE [2]: 101 MEQ/L
CHOLESTEROL [2]: 71.33 mg/dL
CREATINE PHOSPHOKINASE [2]: 231.83 u/L
CREATININE [2]: 0.37 mg/dL
GLUCOSE [2]: 168.83 mg/dL
LACTATE DEHYDROGENASE [2]: 174 u/L
LIPASE [2]: 8.67 u/L
PHOSPHORUS [2]: 11.48 mg/dL
POTASSIUM [2]: 6.82 MEQ/L
SODIUM [2]: 143.8 MEQ/L
TOTAL BILIRUBIN [2]: 0.2 mg/dL
TOTAL PROTEIN [2]: 5.98 G/DL
URIC ACID [2]: 1.83 mg/dL
ABSOLUTE BASOPHIL [3]: 0 CELLS/uL
ABSOLUTE EOSINOPHIL [3]: 203.67 CELLS/uL
ABSOLUTE LYMPHOCYTE [3]: 12113.67 CELLS/uL
ABSOLUTE MONOCYTE [3]: 0 CELLS/uL
ABSOLUTE SEGMENTED NEUTROPHIL [3]: 916 CELLS/uL
BASOPHIL [3]: 0%
EOSINOPHIL [3]: 1.33%
ERYTHROCYTE COUNT [3]: 5.4 x10E6/uL
HEMATOCRIT [3]: 33.83%
HEMOGLOBIN [3]: 12.8 G/DL
LEUKOCYTE COUNT [3]: 13.23 x10E3/uL
LYMPHOCYTE [3]: 91.33%
MEAN CORPUSCULAR HEMOGLOBIN [3]: 23.7 pg
MEAN CORPUSCULAR HEMOGLOBIN CONCENTRATION [3]: 37.87 G/DL
MEAN CORPUSCULAR VOLUME [3]: 62.67 fL
MONOCYTE [3]: 0%
NEUTROPHIL [3]: 7.33%
NUCLEATED RED BLOOD CELLS [3]: 0 /100WBC
PLATELET COUNT [3]: 1197.67 x10E3/uL
ALANINE AMINOTRANSFERASE [3]: 45.67 u/L
ALBUMIN [3]: 4.13 G/DL
ALKALINE PHOSPHATASE [3]: 348.67 u/L
ASPARTATE AMINOTRANSFERASE [3]: 71.33 u/L
BLOOD UREA NITROGEN [3]: 13.33 mg/dL
CARBON DIOXIDE [3]: 28.67 mmol/L
CHLORIDE [3]: 99.67 MEQ/L
CHOLESTEROL [3]: 58 mg/dL
CREATINE PHOSPHOKINASE [3]: 220.33 u/L
CREATININE [3]: 0.19 mg/dL
GLUCOSE [3]: 174.67 mg/dL
LACTATE DEHYDROGENASE [3]: 227.67 u/L
LIPASE [3]: 8 u/L
PHOSPHORUS [3]: 12.33 mg/dL
POTASSIUM [3]: 6.44 MEQ/L
SODIUM [3]: 143.07 MEQ/L
TOTAL BILIRUBIN [3]: 0.23 mg/dL
TOTAL PROTEIN [3]: 5.67 G/DL
URIC ACID [3]: 1.7 mg/dL
